Key:
[1] = tested on: HCV genotype 1a NS3 S122G; settings: in vitro replication assay; cited from earlier work
[2] = tested on: HCV genotype 1a NS3 Wt; settings: in vitro replication assay; cited from earlier work
[3] = tested on: HCV genotype 1a NS3 F43L; settings: in vitro replication assay; cited from earlier work
[4] = tested on: HCV genotype 1a NS3 V36M; settings: in vitro replication assay; cited from earlier work
[5] = tested on: HCV genotype 1a NS3 T54A; settings: in vitro replication assay; cited from earlier work
[6] = tested on: HCV genotype 1a NS3 Q80K; settings: in vitro replication assay; cited from earlier work
[7] = tested on: HCV genotype 1a NS3 S122R; settings: in vitro replication assay; cited from earlier work
[8] = tested on: HCV genotype 1a NS3 D168Y; settings: in vitro replication assay; cited from earlier work
[9] = tested on: human VEGFA locus; format: cell-based; settings: for VEGF concentration, empty vector control cells in respective drug (average): HEK293A, 48 hrs, average of 3 independent experiments

SMILES	EC50 [1] [nM]	EC50 [2] [nM]	EC50 [3] [nM]	EC50 [4] [nM]	EC50 [5] [nM]	EC50 [6] [nM]	EC50 [7] [nM]	EC50 [8] [nM]	VEGF amounts in the culture medium ([9]; HEK293A co-transfected with ZF-StaPL(ti)-tdRFP-KRAB and ZF-StaPL(ai)-YFP-VPR)	VEGF concentration, empty vector control cells in respective drug (average) [9] [pg/mL]
C=C[C@@H]1C[C@]1(NC(=O)[C@@H]1C[C@@H](Oc2ncc(OC)c3ccc(Cl)cc23)CN1C(=O)[C@@H](NC(=O)OC(C)(C)C)C(C)(C)C)C(=O)NS(=O)(=O)C1CC1 [ASV, asunaprevir]	0.65	0.76	2.7	1.5	0.33	2.5	2.6	473	increased	673
CCC[C@H](NC(=O)[C@@H]1[C@H]2CCC[C@H]2CN1C(=O)[C@@H](NC(=O)[C@@H](NC(=O)c1cnccn1)C1CCCCC1)C(C)(C)C)C(=O)C(=O)NC1CC1 [TPV, telaprevir]										930

Source: patent US20210087548A1, “Compositions and Methods for Inducing Protein Function” (priority 2017, published 2021)
